Source: ChEMBL document CHEMBL4622884, “Synthesis of novel 3,5,6-trisubstituted 2-pyridone derivatives and evaluation for their anti-inflammatory activity” (Bioorg Med Chem, 2020)
The source made the active and inactive calls. No cut-off for these calls is given here.

How the values were obtained:
[1] = biological target: T1, Prostaglandin G/H synthase 2 (Homo sapiens) (UniProt P35354); assay: Inhibition of recombinant human COX-2 at 1.95 uM by microplate reader based assay relative to control
T1 sequence (whole entry): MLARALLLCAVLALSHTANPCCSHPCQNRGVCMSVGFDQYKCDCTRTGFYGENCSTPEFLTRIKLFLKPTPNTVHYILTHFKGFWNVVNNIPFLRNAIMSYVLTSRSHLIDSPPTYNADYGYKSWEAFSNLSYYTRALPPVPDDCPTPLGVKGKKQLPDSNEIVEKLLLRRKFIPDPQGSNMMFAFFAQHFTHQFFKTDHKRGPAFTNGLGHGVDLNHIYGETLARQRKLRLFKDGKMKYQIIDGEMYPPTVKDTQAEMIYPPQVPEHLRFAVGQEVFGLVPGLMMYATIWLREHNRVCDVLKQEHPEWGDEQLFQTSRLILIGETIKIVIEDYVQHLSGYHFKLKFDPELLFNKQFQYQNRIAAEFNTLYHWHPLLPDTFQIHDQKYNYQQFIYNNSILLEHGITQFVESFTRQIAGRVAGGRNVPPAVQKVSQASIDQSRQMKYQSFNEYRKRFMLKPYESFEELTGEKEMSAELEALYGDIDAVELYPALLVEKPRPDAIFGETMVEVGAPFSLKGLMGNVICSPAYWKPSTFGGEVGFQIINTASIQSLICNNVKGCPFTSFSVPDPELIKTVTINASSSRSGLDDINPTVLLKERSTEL

[2] = biological target: T1, Prostaglandin G/H synthase 2 (Homo sapiens); assay: Inhibition of recombinant human COX-2 at 31.25 uM by microplate reader based assay relative to control
Mus musculus [3] = assay: Anti-inflammatory activity against croton oil-induced ear edema in Swiss mouse model assessed as inhibition of ear edema at 0.625 mg/ear administered topically immediately after croton oil-stimulation and measured after 6 hrs relative to control; type: functional
Mus musculus [4] = assay: Anti-inflammatory activity against croton oil-induced ear edema in Swiss mouse model assessed as inhibition of ear edema at 1.25 mg/ear administered topically immediately after croton oil-stimulation and measured after 6 hrs relative to control; type: functional
Mus musculus [5] = assay: Anti-inflammatory activity against croton oil-induced ear edema in Swiss mouse model assessed as inhibition of myeloperoxidase activity at 0.625 mg/ear administered topically immediately after croton oil-stimulation and measured after 6 hrs by microplate spectrophotometry relative to control; type: functional
Mus musculus [6] = assay: Anti-inflammatory activity against croton oil-induced ear edema in Swiss mouse model assessed as inhibition of myeloperoxidase activity at 1.25 mg/ear administered topically immediately after croton oil-stimulation and measured after 6 hrs by microplate spectrophotometry relative to control; type: functional
[7] = Cytotoxicity against mouse L929 cells assessed as reduction in cell viability measured after 72 hrs by MTT assay; type: cell-based
[8] = Cytotoxicity against mouse J774A1 cells assessed as reduction in cell viability measured after 48 hrs by MTT assay; type: cell-based, J774.A1
[9] = biological target: T2, COX-1 (Prostaglandin G/H synthase 1) (Ovis aries, UniProt P05979); assay: Inhibition of ovine COX-1 at 1.95 uM by microplate reader based assay relative to control; details: sheep, ovine COX-1 enzyme
T2 sequence (P05979 whole entry): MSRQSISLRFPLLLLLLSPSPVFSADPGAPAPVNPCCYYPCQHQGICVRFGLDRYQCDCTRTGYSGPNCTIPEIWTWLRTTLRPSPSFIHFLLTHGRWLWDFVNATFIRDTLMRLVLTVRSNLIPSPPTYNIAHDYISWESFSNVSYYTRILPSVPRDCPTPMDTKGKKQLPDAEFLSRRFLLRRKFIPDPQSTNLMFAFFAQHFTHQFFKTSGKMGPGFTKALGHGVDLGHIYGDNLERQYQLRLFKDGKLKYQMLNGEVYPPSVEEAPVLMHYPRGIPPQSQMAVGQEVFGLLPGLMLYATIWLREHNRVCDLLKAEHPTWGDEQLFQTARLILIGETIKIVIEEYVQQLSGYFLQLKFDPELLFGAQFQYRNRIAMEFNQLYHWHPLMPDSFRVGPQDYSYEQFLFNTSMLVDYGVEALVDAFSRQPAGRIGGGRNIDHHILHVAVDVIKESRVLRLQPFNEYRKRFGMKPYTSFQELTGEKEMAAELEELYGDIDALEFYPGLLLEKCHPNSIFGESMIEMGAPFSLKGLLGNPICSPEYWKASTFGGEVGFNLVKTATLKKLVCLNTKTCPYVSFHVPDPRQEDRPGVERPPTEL

[10] = biological target: T2, COX-1 (Prostaglandin G/H synthase 1); assay: Inhibition of ovine COX-1 at 31.25 uM by microplate reader based assay relative to control; details: sheep, ovine COX-1 enzyme
Mus musculus [11] = assay: Anti-inflammatory activity against croton oil-induced ear edema in Swiss mouse model assessed as inhibition of ear edema at 1 mg/ear administered topically immediately after croton oil-stimulation and measured after 6 hrs relative to control; type: functional
Mus musculus [12] = assay: Anti-inflammatory activity against croton oil-induced ear edema in Swiss mouse model assessed as inhibition of myeloperoxidase activity at 1 mg/ear administered topically immediately after croton oil-stimulation and measured after 6 hrs by microplate spectrophotometry relative to control; type: functional
Ovis aries = species: Ovis aries; assay: Selectivity index, ratio of IC50 of ovine COX-1 to […]

SMILES	inhibition (INH) (Mus musculus [3]) [%]	inhibition (INH) (Mus musculus [4]) [%]	inhibition (INH) (Mus musculus [5]) [%]	inhibition (INH) (Mus musculus [6]) [%]	CC50 at 72 h [7] [µM]	CC50 at 48 h [8] [µM]	further results
CCOC(=O)c1[nH]c(=O)c(C#N)cc1C(=O)c1ccc([N+](=O)[O-])cc1.CNC [listing 1 of 2 here]							inhibition [1]: 74%; inhibition [2]: 10.1%
CCOC(=O)c1[nH]c(=O)c(C#N)cc1C(=O)c1ccc(Cl)cc1.CNC	70.1	71.3	99	99.9			
CCOC(=O)c1[nH]c(=O)c(C#N)cc1C(=O)c1ccc(Br)cc1					242	< 100	inhibition (Mus musculus [4]): Active
CCOC(=O)c1[nH]c(=O)c(C#N)cc1C(=O)c1ccc(F)cc1					232	< 100	inhibition (Mus musculus [4]): Active
O=C(c1ccc([N+](=O)[O-])cc1)c1cc(C(=O)O)c(=O)[nH]c1C(=O)O	90.8	93	99.6	94.3	439	388	inhibition at 1.95 µM [9]: 12.4%; inhibition at 31.25 µM [10]: 36.8%; inhibition [1]: 20.2%; inhibition [2]: 38.1%
CCOC(=O)c1[nH]c(=O)c(C#N)cc1C(=O)c1ccc(Cl)cc1		73.9	99	99	218	< 100	
N#Cc1cc(C(=O)c2ccc([N+](=O)[O-])cc2)c(C(=O)O)[nH]c1=O		64.6	99	97.6			
CCOC(=O)c1[nH]c(=O)c(C#N)cc1C(=O)c1ccccc1					465	215	inhibition (Mus musculus [4]): Active
O=C(c1ccc(Cl)cc1)c1cc(C(=O)O)c(=O)[nH]c1C(=O)O	84	54.2	89.4	99			
CCOC(=O)c1[nH]c(=O)c(C#N)cc1C(=O)c1ccc(OC)cc1					259	< 100	inhibition (Mus musculus [4]): Active
COc1ccc2c(c1)c(CC(=O)O)c(C)n2C(=O)c1ccc(Cl)cc1 [INDOMETHACIN]							inhibition (INH) (Mus musculus [11]): 98.2%; inhibition (INH) (Mus musculus [12]): 48%
CCOC(=O)c1[nH]c(=O)c(C#N)cc1C(=O)c1ccc(C)cc1					512	194	inhibition (Mus musculus [4]): Active
CCOC(=O)c1[nH]c(=O)c(C#N)cc1C(=O)c1ccc([N+](=O)[O-])cc1.CNC [listing 2 of 2 here]	70	98.9	99	98.9	257	< 100	inhibition at 31.25 µM [10]: 16.3%
CCOC(=O)c1[nH]c(=O)c(C(=O)OCC)cc1C(=O)c1ccc(Cl)cc1			94.4	88.1			
CCOC(=O)c1[nH]c(=O)c(C(=O)OCC)cc1C(=O)c1ccc([N+](=O)[O-])cc1	66.3	87.9	99	99			
CS(=O)(=O)c1ccc(-c2cc(Cn3ccnc3)c3ccc(C4CCCCC4)c(C4CCCCC4)c3n2)cc1							Ratio IC50 (Ovis aries): 548
CCOC(=O)c1[nH]c(=O)c(C(=O)O)cc1C(=O)c1ccc(Cl)cc1			99	93			
CCOC(=O)c1[nH]c(=O)c(C#N)cc1C(=O)c1ccc([N+](=O)[O-])cc1		93	99	99	213	< 100	
N#Cc1cc(C(=O)c2ccc(Cl)cc2)c(C(=O)O)[nH]c1=O	74.5		84.5				
